Assay results published in patent US6465494B1, “Methods for treatment of cystic fibrosis” (Cell Pathways, Inc., priority 2001, dated 2002).
Counter-ions that a name gives are not always drawn.

Columns and labels:
[1] = 91-day long-term safety assessment study in rats; format: in vivo
From the text: These changes were not associated with any gross clinical abnormality.

PDE1 = test: PDE inhibition, similar protocols: PDE1; format: biochemical
PDE5 [2] = target: T1, PDE5 (Homo sapiens, UniProt O76074); test: competitive (with cGMP) binding to PDE5
[3] = acute toxicity study in rats; settings: rat, in vivo; for LD50: rats
[4] = seven-day dose-range finding study in rats; format: in vivo; settings: 7 days
[5] = acute and seven-dose toxicity in dogs (capsules); settings: dog, in vivo
Protocol: Therefore, these dogs were subsequently administered seven consecutive doses of 1000 mg/kg/day.

PDE5 [6] = target: T1, PDE5; test: cGMP PDE inhibition, 3H-cGMP hydrolysis: PDE5; format: biochemical; design: partially purified cGMP-specific PDE isolated from HT-29 cells; endogenous in cells; host or cells: HT-29
Protocol: (Thompson, W. J., Teraski, W. L., Epstein, P. M., Strada, S. J., Advances in Cyclic Nucleotide Research, 10:69-92, 1979, which is incorporated herein by reference). […] The mixture is incubated at 30° C. for 10 minutes with isolated PDE2 and/or PDE5. Reactions are terminated, for example, by boiling the reaction mixture for 75 seconds. After cooling on ice, 100 μl of 0.5 mg/mL snake venom (O. Hannah venom available from Sigma) is added and incubated for 10 minutes at 30° C. This reaction is then terminated by the addition of an alcohol, e.g. 1 mL of 100% methanol. Assay samples are applied to 1 mL Dowex 1-X8 column; and washed with 1 mL of 100% methanol. The amount of radioactivity in the breakthrough and the wash from the column is combined and measured with a scintillation counter. The degree of phosphodiesterase inhibition is determined by calculating the amount of radioactivity in drug-treated reactions and comparing against a control sample (a reaction mixture lacking the tested compound but with drug solvent).
Compounds of this invention are also PDE2 and PDE5 inhibitors as taught in part U.S. patent application Ser. No. 09/046,739 filed Mar. 24, 1998. […] The amount of radioactivity in the breakthrough and the wash from the columns in then measured with a scintillation counter. […]

PDE4 = test: PDE inhibition, similar protocols: PDE4; format: biochemical
[7] = 91-day oral study in dogs; format: in vivo
[8] = single, escalating dose human clinical safety study; format: in vivo; settings: oral, 50 mg BID, 100 mg BID, 200 mg BID and 400 mg BID
[9] = system: TNF-α secreted by TPA-induced U937 cells; test: TNF-α immunoassay on culture media of TPA-treated U937 cells; format: cell-based
Protocol: One function of macrophages is to modulate the activity of other inflammatory cells through various cytokine molecules.
TNF-αlevels in the cell culture media were determined by using the TNF-α Immunoassay from R&D Systems (Cat. # DTA50) according to the manufacturer's protocol.

CC1=C(CC(=O)NCc2ccccc2)c2cc(F)ccc2/C1=C\c1ccncc1 [Example 38, (Z)-5-fluoro-2-methyl-(4-pyridylidene)-3-(N-benzyl)indenylacetamide hydrochloride]
clinical biochemistry and hematology ([1]; 91 days): no changes in clinical biochemistry and hematology were evident | microscopic finding, follicular cells ([1]; 91 days, 500 mg/kg/day): follicular cell hypertrophy | microscopic finding, kidneys ([1]; 91 days, 200 and 500 mg/kg/day): increase in accumulation of hyalin droplets in the kidneys | microscopic finding, liver ([1]; 91 days, 200 and 500 mg/kg/day): slight hepatocellular hypertrophy | liver and thyroid/parathyroid weights ([1]; 91 days, males and females at 200 and 500 mg/kg/day): dose-related trend to increased liver and thyroid/parathyroid weights | toxicological effects overall ([1]; oral, 91 consecutive days, 50, 200 and 500 mg/kg/day): did not produce any major toxicological effects | IC50 (PDE1): 3 µM | competitive (with cGMP) binding to PDE 5 (PDE5 [2]): does competitively (with cGMP) bind to PDE 5 | acute toxicity on a single-dose basis [3]: not acutely toxic | body weight gain ([3]; ip, 1000 mg/kg): reduced body weight gain | necropsy finding ([3]; ip, 1000 mg/kg): mesenteric adhesions seen in some animals | LD50 ([3]; ip, 1000 mg/kg, intraperitoneal, read-out: intraperitoneal LD50): > 1000 mg/kg | body weight gains ([3]; po, 2000 mg/kg): slightly reduced | LD50 ([3]; oral, read-out: oral LD50): > 2000 mg/kg | observable signs of toxicity ([4]; 50 mg/kg/day): no observable signs of toxicity | treatment-related effects ([4]; 500 mg/kg/day): limited to an increase in absolute and relative liver weights in female rats | treatment-related effects ([4]; 2000 mg/kg/day): labored breathing and/or abnormal respiratory sounds, decreased weights gains and food consumption in male rats, and increased liver weights in female rats | hematological, blood chemistry and microscopic pathology changes ([4]; any dose level (50, 500, 2000 mg/kg/day)): No hematological or blood chemistry changes nor any microscopic a pathology changes | LD50 ([5]; both sexes, 1000 mg/kg, dogs, oral): > 1000 mg/kg | signs of toxicity ([5]; 1000 mg/kg): no signs of toxicity | signs of drug-related effects ([5]; 1000 mg/kg/day): At no time in either dosing phase were any obvious signs of drug-related effects observed | IC50 (PDE5 [6]): 4 µM | IC50 (PDE4): 6 µM | tolerability ([7]; 91 days): well tolerated | feces observation ([7]; 91 days, 150 and 300 mg/kg/day): Orange discoloration of the feces | body weights ([7]; 91 days, highest dose group): Slightly lowered body weights | liver weights ([7]; 91 days, highest dose group): increased liver weights | microscopic alterations of liver ([7]; 91 days, highest dose group): no microscopic alterations | toxicological effects overall ([7]; oral, 91 consecutive days, 50, 150 and 300 mg/kg/day): no toxicological effects | side effects [8]: no significant side effects at any dose | level of TNF-α secreted into cell culture media [9]: significantly reduced
